{"source": "patent US20210106567A1", "about": "“COMPOSITIONS AND METHODS FOR INHIBITING CARP-1 BINDING TO NEMO” (United States Government As Represented By The Department …, priority 2019, published 2021)", "key": {"[1]": {"system": "parental and chemo-resistant human and murine TNBC cells and parental renal cancer cells", "experiment": "Cytokine ELISA of culture media, chemotherapy-induced secretion", "assay_type": "cell-based", "conditions": "single agent"}, "[2]": {"system": "4T1 TNBC tumors", "experiment": "4T1 TNBC syngeneic tumor efficacy study in Balb/c mice", "assay_type": "in vivo, mouse", "experimental": "Establishment of TNBC cell-derived xenografts in Syngeneic mice: Generation of 4T1 TNBC cell-derived sub-cutaneous xenografts in Balb/c mice were performed (Cheriyan et al. (2016) Oncotarget 7, 73370-73388; and Cheriyan et al. (2017) Oncotarget 8, 104928-104945). BALB/cAnNCr, 6-8-weeks old, female mice were purchased from Charles River Laboratories (Horsham, Pa.). Following suitable acclimation of animals, 1×10^6 4T1 TNBC cells were re-suspended in 200 μl of sterile saline, and implanted in the flanks using a 27-gauge needle. Tumors were allowed to grow to 500-1000 mg (˜10 days), and the aseptically harvested, minced into 3-4 mm^3 (30 mg) fragments and transplanted SC into naïve recipient mice using a standard 12 gauge trocar to serially maintain the tumor in vivo. For efficacy studies, tumors serially maintained in vivo were aseptically harvested and minced into 3-4 mm^3 (30 mg) fragments, then bilaterally transplanted subcutaneously along the flanks using a standard 12 gauge trocar. […] For the efficacy studies, SNI-1 was formulated in 8% DMSO (v/v) and 8% Cremophor (v/v) in cell grade water, pH4 as diluent.\nClinical grade ADR stock (2 mg/mL) was diluted to the appropriate concentration with cell grade water; pH4 and clinical grade CIS (1 mg/ml) diluted with USP 0.9% saline; pH6). Mice were monitored daily for changes in condition and body weight. Tumors were measured three times weekly by caliper and tumor volume (mg) was calculated using the following formula: (A×B2)/2 where A and B are the tumor length and width (in mm), respectively. […] Efficacy was also assessed quantitatively using tumor growth delay (T−C) defined as the difference between the median time (in days) required for the treatment group tumors (T) to reach 1000 mg and the median time (days) for the control group tumors to reach the same volume. Post last treatment, tumor tissue and samples from various organs (spleen, liver, kidney, heart, bone, and lungs) were collected. Additionally, the whole blood samples were obtained from a representative tumor-bearing mouse from each group via terminal cardiac puncture. Immuno-histochemical analyses of the tumor and tissue samples were performed for expression of activated RelA (serine 536 phosphorylated p65), total RelA, cleaved caspase-3, and CARP-1 proteins. The levels of pro-inflammatory cytokines in the sera were analyzed by sandwich ELISA assays following methods detailed herein (Cheriyan et al. (2016) Oncotarget 7, 73370-73388; and Cheriyan et al. (2017) Oncotarget 8, 104928-104945)."}, "[3]": {"system": "RENCA renal cancer tumors", "experiment": "RENCA cell-derived syngeneic kidney cancer tumor model", "conditions": "throughout the experiment", "procedure": "The subcutaneous tumor bearing mice were treated with indicated agents. […] The end-points for assessing anti-tumor activity involved qualitative determination via tumor growth inhibition (% T/C) where T is the median tumor volume of the treated mice and C is the median tumor volume of the Control mice on any given day of measurement."}, "[4]": {"system": "p65/RelA activation and phosphorylation of NEMO", "experiment": "Western blot for canonical NF-κB activation", "assay_type": "cell-based", "conditions": "single agent, Western blot", "description": "The cells were lysed to prepare protein extracts."}, "[5]": {"system": "MDR1", "experiment": "Levels of drug efflux pump MDR1", "assay_type": "cell-based, human", "conditions": "MDA-MB-468 cells", "description": "Of note is that SNI-1 in combination with Adriamycin provoked a greater inhibition of tumor growth when compared with the tumor growth inhibition noted in animals treated with either agent alone. […] Since TNBCs and many other cancers are often known to express drug efflux pumps that contribute to lower efficacy of drugs in clinic and development of drug-resistant tumors, it is likely that the presence/expression of these drug efflux pumps function in part to interfere with a robust anti-tumor response to a combination of SNI-1 and Adriamycin."}}, "data": [{"smiles": "N.N.[Cl][Pt][Cl]", "note": "[Cisplatin]", "values": [{"measurement": "levels of TNFα, IL-8, and IL-1β in the media", "setting": "[1]", "value": "robust increase"}, {"measurement": "serum levels of TNFα and IL-1β", "setting": "[2]; ELISA of sera", "value": "robustly stimulated"}, {"measurement": "phosphorylated p65/RelA in tumors (immuno-histochemistry)", "setting": "[2]; mouse, in vivo", "value": "presence of phosphorylated p/65RelA"}, {"measurement": "cleaved caspase-3 in tumors (immuno-histochemistry)", "setting": "[2]; versus untreated control animal", "value": "strong presence of cleaved caspase-3"}, {"measurement": "weight loss in animals", "setting": "[3]", "value": "0.8-3.2%"}, {"measurement": "p65/RelA activation and phosphorylation of NEMO", "setting": "[4]", "value": "robust increase"}, {"measurement": "levels of drug efflux pump MDR1", "setting": "[5]", "value": "robust increase"}]}]}
